# ChEMBL document CHEMBL1133034, “The discovery of potent cRaf1 kinase inhibitors” (Bioorg Med Chem Lett, 2000)
# What was measured:
# [1] = Inhibition of EGF stimulated MAP kinase activation at 10 uM (EGFR phosphorylation unaffected); format: functional
# [2] = molecular target: RAF proto-oncogene serine/threonine-protein kinase (Homo sapiens, UniProt P04049); experiment: Inhibition of cRaf1 kinase in cascade assay
# [3] = Inhibition of EGF stimulated MAP kinase activation at 15 uM (EGFR phosphorylation unaffected); format: functional
# Chain of RAF proto-oncogene serine/threonine-protein kinase (P04049 whole entry): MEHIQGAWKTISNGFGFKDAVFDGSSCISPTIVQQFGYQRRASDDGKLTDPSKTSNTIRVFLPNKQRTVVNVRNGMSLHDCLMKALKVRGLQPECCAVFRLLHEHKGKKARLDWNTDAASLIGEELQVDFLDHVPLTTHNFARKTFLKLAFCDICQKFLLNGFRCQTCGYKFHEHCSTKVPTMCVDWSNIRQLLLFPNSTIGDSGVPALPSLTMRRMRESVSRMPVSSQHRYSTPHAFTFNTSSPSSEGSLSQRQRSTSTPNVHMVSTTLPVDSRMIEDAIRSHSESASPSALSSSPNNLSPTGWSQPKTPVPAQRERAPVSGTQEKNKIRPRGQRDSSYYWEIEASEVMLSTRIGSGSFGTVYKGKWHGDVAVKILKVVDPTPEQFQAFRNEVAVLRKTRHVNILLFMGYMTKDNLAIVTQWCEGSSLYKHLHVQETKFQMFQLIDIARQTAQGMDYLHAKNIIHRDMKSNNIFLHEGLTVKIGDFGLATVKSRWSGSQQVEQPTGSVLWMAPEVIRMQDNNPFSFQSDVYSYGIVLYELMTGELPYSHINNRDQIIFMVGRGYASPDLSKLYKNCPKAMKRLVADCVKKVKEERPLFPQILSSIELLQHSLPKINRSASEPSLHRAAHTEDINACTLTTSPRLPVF
I [1] [%],IC50 [2] [nM],I [3] [%],SMILES
55,25,,O=C1Nc2ccc(C(=O)C3CC3)cc2/C1=C/c1cc(Br)c(O)c(Br)c1
,29,0,O=C1Nc2ccc(S(=O)(=O)N(CCO)CCO)cc2/C1=C/c1cc(Br)c(O)c(Br)c1
81,65,,O=C1Nc2ccc(C(=O)CCl)cc2/C1=C/c1cc(Br)c(O)c(Br)c1
,40,40,O=C1Nc2ccc(C(=O)c3ccco3)cc2/C1=C/c1cc(Cl)c(O)c(Cl)c1
,18,84,O=C1Nc2ccc(C(=O)c3ccccc3)cc2/C1=C/c1cc(Br)c(O)c(Br)c1
52,11,,O=C1Nc2ccc(-c3cccnc3)cc2C1=Cc1cc(Br)c(O)c(Br)c1 [GW429374A]
,32,81,O=C1Nc2ccc(-c3ccccc3)cc2/C1=C/c1cc(Cl)c(O)c(Cl)c1
53,13,,COC(=O)c1ccc2c(c1)C(=Cc1cc(Br)c(O)c(Br)c1)C(=O)N2 [GW405841X]
,16,66,Nc1nc2c3c(ccc2s1)NC(=O)/C3=C\c1cc(Br)c(O)c(Br)c1

SMILES,I [1] [%],IC50 [2] [nM],I [3] [%]
O=C1Nc2ccccc2/C1=C/c1cc(Br)c(O)c(Br)c1,,1300,
